Experimental data reported in patent publication US8748568B2, “Isolated A-type FHF N-terminal domain peptides and methods of use” (Research Foundation of The City University of New York, priority 2009, dated 2014).
Entries after “also recorded” stand apart in the source; their conditions may differ.

What was measured:
TTX-resistant Nav1.6 [1] = test: Whole cell voltage clamp of Nav1.6 currents in Neuro2A cells: long-term inactivation through repeated depolarization cycles; type: cell-based
Description: […]. Nav1.6 currents were analyzed in cells without FHFs (upper panels) or after transient transfection with a DNA vector expressing full-length FHF2A protein (lower panels). The holding voltage was −90 mV. Cells were subjected to two 6 millisecond depolarizations at 0 mV separated by −90 mV interpulse recovery periods of 0.5 to 20 msec (left panels). All 40 command sweeps are shown.
Neuro2A cells expressing TTX-resistant Nav1.6 were transfected with DNA expression vectors for FHF1A, FHF1B, FHF2A, FHF2B, or FHF4B. Transfected cells in the presence of TTX were subjected to four 16 millisecond depolarization cycles (0 mV) separated by 40 millisecond recovery periods (−90 mV), and peak inward Nav1.6-mediated sodium currents were recorded for each depolarization.
A Neuro2A cell expressing TTX-resistant Nav1.6 and transfected to express FHF2A was analyzed for the voltage dependence of steady state inactivation, long-term inactivation, and activation, using specific voltage command protocols. For steady state inactivation, cells were held at different “test command” voltages for 60 milliseconds followed immediately by further depolarization to 0 mV; the residual peak current derives from channels not inactivated (i.e. still available). For long term inactivation, cells were held at different “test command” voltages for 60 milliseconds, with each test command followed by 40 millisecond recovery at −90 mV before depolarization to 0 mV; peak current derives from channels that have not undergone long-term inactivation. For activation, cells were depolarized to different “test command” voltages, and peak inward currents were converted to percent maximum conductance to reflect percentage of channels transiently activated.
(§1) Neuro2A cells expressing TTX-resistant Nav1.6 were analyzed for TTX-resistant sodium currents following whole cell patch clamp using pipette solution containing peptide corresponding to N-terminal residues 2-21 of FHF2A (referred to as ANTD, for A-type N-terminal domain). Peptide injected cells were subjected to four 16 millisecond depolarization cycles (0 mV) separated by 40 millisecond recovery periods (−90 mV), and peak inward Nav1.6-mediated sodium currents were recorded for each depolarization.

TTX-resistant Nav1.6 [2] = test: Voltage dependence of steady state inactivation of Nav1.6 in Neuro2A cells; type: cell-based
Description: A Neuro2A cell expressing TTX-resistant Nav1.6 and transfected to express FHF2A was analyzed for the voltage dependence of steady state inactivation, long-term inactivation, and activation, using specific voltage command protocols. For steady state inactivation, cells were held at different “test command” voltages for 60 milliseconds followed immediately by further depolarization to 0 mV; the residual peak current derives from channels not inactivated (i.e. still available). For long term inactivation, cells were held at different “test command” voltages for 60 milliseconds, with each test command followed by 40 millisecond recovery at −90 mV before depolarization to 0 mV; peak current derives from channels that have not undergone long-term inactivation. […]
as §1

[3] = test system: cerebellar granule neurons; test: Voltage clamp and current clamp of cultured cerebellar granule neurons; type: cell-based, Mouse; conditions: 1 mM peptide injected
Description: Mouse cerebellar granule neurons were cultured for 14 days under conditions that promoted their maturation to a fully excitable state. These neurons were Whole cell patched and subjected to voltage clamp and current clamp protocols. In voltage clamp, neurons were depolarized four times for 16 milliseconds to 0 mV with 40 millisecond interpulse recoveries at −90 mV (left panels). In current clamp, positive current injection for 800 milliseconds was used to trigger firing of action potentials. A range of currents were tested, and only the recordings from currents giving highest frequency and amplitude of action potentials are shown (right panels).

[4] = test system: mutant VGSC in which the fast inactivation particle was disabled (Nav1.6); test: Long-term inactivation of mutant VGSC with disabled fast inactivation particle, whole cell voltage clamp; type: cell-based; conditions: single cycle of membrane depolarization
Description: . Nav1.6 currents were analyzed in cells without FHFs (left panels—FIG. 7) or after transient transfection with a DNA vector expressing full-length FHF2A protein (right panels—FIG. 7).

[5] = four 16 msec depolarization cycles at 0 mV separated by 40 msec recoveries at -90 mV, cells transfected with FHF expression vector

Q: For “AAAIASSLIRQKRQAREREK [ANTD peptide, peptide corresponding to N-terminal residues 2-21 of FHF2A]”, which “long-term inactivation of Nav1.6” value (TTX-resistant Nav1.6 [1]; 0.5 mM peptide in pipette solution, four 16 msec depolarization cycles, 40 msec recoveries) is on record?
A: induced long-term inactivation, albeit to lesser degree

Q: And the “long-term inactivation of Nav1.6” value (TTX-resistant Nav1.6 [1]; 1 mM peptide in pipette solution, four 16 msec depolarization cycles, 40 msec recoveries)?
A: robust accumulation into long-term inactivation

Q: What about the “dose dependence of peptide-induced long-term inactivation” value (TTX-resistant Nav1.6 [1]; 1 mM versus 0.5 mM) of the same molecule?
A: dose dependent

Q: And the “onset of long-term inactivation” value (TTX-resistant Nav1.6 [1]; 1 millimolar peptide, compared with native protein)?
A: faster onset of long-term inactivation than the native protein

Q: What about the “effect on voltage dependence of steady state (fast) inactivation of Nav1.6” value (TTX-resistant Nav1.6 [2]) of the same molecule?
A: no significant effect

Q: What about the “action potentials generated upon current injection” value ([3]; current clamp, 800 msec positive current injection) of the same molecule?
A: only a single action potential

Q: What about the inward sodium currents ([3]; voltage clamp, four 16 msec depolarizations to 0 mV, 40 msec recoveries at -90 mV) of the same molecule?
A: decrease with each cycle of depolarization

Q: And the outward potassium currents ([3]; voltage clamp, four depolarization cycles)?
A: unaffected

Q: What about the “channels driven into long-term inactivation” value [4] of the same molecule?
A: nearly all

Q: What does the source list for “FHF2A: full-length FHF2A protein, fibroblast growth factor homologous factor, expressed from a transfected DNA vector (AAAIASSLIRQKRQAREREK)”?
A: percentage of channels that undergo long-term inactivation (TTX-resistant Nav1.6 [1]; 60 msec test command, 40 msec recovery at -90 mV, then 0 mV, not increased by further depolarization): 35-40%; long-term inactivation of Nav1.6 (TTX-resistant Nav1.6 [1]; [5]): induce long-term inactivation; long-term inactivation of Nav1.6 (TTX-resistant Nav1.6 [1]; four 16 msec depolarization cycles at 0 mV separated by 40 msec recoveries at -90 mV, cells transfected with FHF expression vector, listed as FHF2A protein): channels accumulate into a long-term inactivated state with each depolarization cycle; also recorded: induces both long-term inactivation; voltage at which long-term inactivation occurs relative to steady state inactivation (TTX-resistant Nav1.6 [1]; test command voltage protocols, FHF2A-transfected cell): far more depolarized voltage than steady state inactivation; fraction of channels that do not rapidly recover from inactivation (TTX-resistant Nav1.6 [1]; two 6 msec depolarizations at 0 mV, -90 mV interpulse recovery 0.5 to 20 msec, cells transfected with FHF vector): approximately one-third; effect on voltage dependence of steady state (fast) inactivation of Nav1.6 (TTX-resistant Nav1.6 [2]): depolarizing shift; channels driven into long-term inactivation [4]: nearly all channels being driven into long-term inactivation

B1: FHF2B: B-type fibroblast growth factor homologous factor expressed from a DNA expression vector (protein)
chain: MALLRKSYSEPQLKGIVTKLYSRQGYHLQLQADGTIDGTKDEDSTYTLFNLIPVGLRVVAIQGVQTKLYLAMNSEGYLYTSELFTPECKFKESVFENYYVTYSSMIYRQQQSGRGWYLGLNKEGEIMKGNHVKKNKPAAHFLPKPLKVAMYKEPSLHDLTEFSRSGSGTPTKSRSVSGVLNGGKSMSHNEST
Q: Which “long-term inactivation of Nav1.6” value (TTX-resistant Nav1.6 [1]; [5]) does the source give for B1 here?
A: do not

B2: FHF1B: B-type fibroblast growth factor homologous factor expressed from a DNA expression vector (protein)
chain: MESKEPQLKGIVTRLFSQQGYFLQMHPDGTIDGTKDENSDYTLFNLIPVGLRVVAIQGVKASLYVAMNGEGYLYSSDVFTPECKFKESVFENYYVIYSSTLYRQQESGRAWFLGLNKEGQIMKGNRVKKTKPSSHFVPKPIEVCMYREPSLHEIGEKQGRSRKSSGTPTMNGGKVVNQDST
Q: B2 was tested. Which “long-term inactivation of Nav1.6” value (TTX-resistant Nav1.6 [1]; [5]) did it give?
A: do not

B3: FHF4B: B-type fibroblast growth factor homologous factor expressed from a DNA expression vector (protein)
chain: MVKPVPLFRRTDFKLLLCNHKDLFFLRVSKLLDCFSPKSMWFLWNIFSKGTHMLQCLCGKSLKKNKNPTDPQLKGIVTRLYCRQGYYLQMHPDGALDGTKDDSTNSTLFNLIPVGLRVVAIQGVKTGLYIAMNGEGYLYPSELFTPECKFKESVFENYYVIYSSMLYRQQESGRAWFLGLNKEGQAMKGNRVKKTKPAAHFLPKPLEVAMYREPSLHDVGETVPKPGVTPSKSTSASAIMNGGKPVNKSKTT
Q: How did the “long-term inactivation of Nav1.6” value (TTX-resistant Nav1.6 [1]; [5]) turn out when B3 was run?
A: do not
